Legend:
Test in all cases: relative viability (nuclei count vs DMSO), 5 days (fraction); higher = more cells survive
Midostaurin + Tozasertib = compound: CO[C@@H]1[C@H](N(C)C(=O)c2ccccc2)C[C@H]2O[C@]1(C)n1c3ccccc3c3c4c(c5c6ccccc6n2c5c31)C(=O)NC4 [Midostaurin] + Cc1cc(Nc2cc(N3CCN(C)CC3)nc(Sc3ccc(NC(=O)C4CC4)cc3)n2)n[nH]1 [Tozasertib] (partner 0.1 µM)
Method in brief: (§1)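 Lung cancer cell lines in 1536-well plates got either a single drug or a fixed anchor-drug dose together with five library-drug doses (not always all listed) in √10 steps, by pin tool, on the day after seeding. Nuclei were counted after 5 days, and relative viability is the treated-to-vehicle ratio of nuclei counts. Values are medians of duplicate plates.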

[1] = compound: COc1cc(-c2nn([C@H]3CC[C@H](N4CCN(C(C)=O)CC4)CC3)c3ncnc(N)c23)ccc1NC(=O)c1cc2ccccc2n1C + CCNC(=O)c1noc(-c2cc(C(C)C)c(O)cc2O)c1-c1ccc(CN2CCOCC2)cc1 [Luminespib] (partner 0.01 µM)
Method in brief: as §1

Midostaurin + OSI-027 = compound: CO[C@@H]1[C@H](N(C)C(=O)c2ccccc2)C[C@H]2O[C@]1(C)n1c3ccccc3c3c4c(c5c6ccccc6n2c5c31)C(=O)NC4 [Midostaurin] + COc1cccc2cc(-c3nc([C@H]4CC[C@H](C(=O)O)CC4)n4ncnc(N)c34)[nH]c12 [OSI-027] (partner 0.5 µM)
Method in brief: as §1

Midostaurin + Phenformin = compound: CO[C@@H]1[C@H](N(C)C(=O)c2ccccc2)C[C@H]2O[C@]1(C)n1c3ccccc3c3c4c(c5c6ccccc6n2c5c31)C(=O)NC4 [Midostaurin] + N=C(N)NC(=N)NCCc1ccccc1 [Phenformin] (partner 250 µM)
Method in brief: as §1

Midostaurin + Linsitinib = compound: CO[C@@H]1[C@H](N(C)C(=O)c2ccccc2)C[C@H]2O[C@]1(C)n1c3ccccc3c3c4c(c5c6ccccc6n2c5c31)C(=O)NC4 [Midostaurin] + C[C@]1(O)C[C@@H](c2nc(-c3ccc4ccc(-c5ccccc5)nc4c3)c3c(N)nccn32)C1 [Linsitinib] (partner 1 µM)
Method in brief: as §1

PC-3 [JPC-3]
relative viability (Midostaurin + Tozasertib; first compound 0.01 µM): 0.886 | relative viability (Midostaurin + Tozasertib; first compound 0.03162 µM): 0.809 | relative viability (Midostaurin + Tozasertib; first compound 0.1 µM): 0.865 | relative viability (Midostaurin + Tozasertib; first compound 0.3162 µM): 0.867 | relative viability ([1]; first compound 0.0128 µM): 0.681 | relative viability ([1]; first compound 0.04048 µM): 0.838 | relative viability ([1]; first compound 0.128 µM): 0.712 | relative viability ([1]; first compound 1.28 µM): 0.711 | relative viability (Midostaurin + OSI-027; first compound 0.01 µM): 0.718 | relative viability (Midostaurin + OSI-027; first compound 0.03162 µM): 0.579 | relative viability (Midostaurin + OSI-027; first compound 0.1 µM): 0.78 | relative viability (Midostaurin + OSI-027; first compound 0.3162 µM): 0.806 | relative viability (Midostaurin + Phenformin; first compound 0.01 µM): 0.497 | relative viability (Midostaurin + Phenformin; first compound 0.03162 µM): 0.474 | relative viability (Midostaurin + Phenformin; first compound 0.1 µM): 0.491 | relative viability (Midostaurin + Phenformin; first compound 0.3162 µM): 0.517 | relative viability (Midostaurin + Linsitinib; first compound 0.01 µM): 0.913 | relative viability (Midostaurin + Linsitinib; first compound 0.03162 µM): 0.862 | relative viability (Midostaurin + Linsitinib; first compound 0.1 µM): 0.925 | relative viability (Midostaurin + Linsitinib; first compound 0.3162 µM): 0.934

BEN
relative viability (Midostaurin + Tozasertib; first compound 0.01 µM): 0.501 | relative viability (Midostaurin + Tozasertib; first compound 0.03162 µM): 0.551 | relative viability (Midostaurin + Tozasertib; first compound 0.1 µM): 0.401 | relative viability (Midostaurin + Tozasertib; first compound 0.3162 µM): 0.459 | relative viability ([1]; first compound 0.0128 µM): 0.156 | relative viability ([1]; first compound 0.04048 µM): 0.398 | relative viability ([1]; first compound 0.128 µM): 0.36 | relative viability ([1]; first compound 1.28 µM): 0.259 | relative viability (Midostaurin + OSI-027; first compound 0.01 µM): 0.324 | relative viability (Midostaurin + OSI-027; first compound 0.03162 µM): 0.273 | relative viability (Midostaurin + OSI-027; first compound 0.1 µM): 0.267 | relative viability (Midostaurin + OSI-027; first compound 0.3162 µM): 0.32 | relative viability (Midostaurin + Phenformin; first compound 0.01 µM): 0.298 | relative viability (Midostaurin + Phenformin; first compound 0.03162 µM): 0.235 | relative viability (Midostaurin + Phenformin; first compound 0.1 µM): 0.245 | relative viability (Midostaurin + Phenformin; first compound 0.3162 µM): 0.243 | relative viability (Midostaurin + Linsitinib; first compound 0.01 µM): 0.926 | relative viability (Midostaurin + Linsitinib; first compound 0.03162 µM): 0.905 | relative viability (Midostaurin + Linsitinib; first compound 0.1 µM): 1.02 | relative viability (Midostaurin + Linsitinib; first compound 0.3162 µM): 0.978

NCI-H1666
relative viability (Midostaurin + Tozasertib; first compound 0.01 µM): 0.629 | relative viability (Midostaurin + Tozasertib; first compound 0.03162 µM): 0.572 | relative viability (Midostaurin + Tozasertib; first compound 0.1 µM): 0.596 | relative viability (Midostaurin + Tozasertib; first compound 0.3162 µM): 0.488 | relative viability ([1]; first compound 0.0128 µM): 0.926 | relative viability ([1]; first compound 0.04048 µM): 0.994 | relative viability ([1]; first compound 0.128 µM): 1.01 | relative viability ([1]; first compound 1.28 µM): 1.04 | relative viability (Midostaurin + OSI-027; first compound 0.01 µM): 0.8 | relative viability (Midostaurin + OSI-027; first compound 0.03162 µM): 0.794 | relative viability (Midostaurin + OSI-027; first compound 0.1 µM): 0.883 | relative viability (Midostaurin + OSI-027; first compound 0.3162 µM): 0.903 | relative viability (Midostaurin + Phenformin; first compound 0.01 µM): 0.496 | relative viability (Midostaurin + Phenformin; first compound 0.03162 µM): 0.537 | relative viability (Midostaurin + Phenformin; first compound 0.1 µM): 0.546 | relative viability (Midostaurin + Phenformin; first compound 0.3162 µM): 0.537 | relative viability (Midostaurin + Linsitinib; first compound 0.01 µM): 0.897 | relative viability (Midostaurin + Linsitinib; first compound 0.03162 µM): 0.916 | relative viability (Midostaurin + Linsitinib; first compound 0.1 µM): 0.77 | relative viability (Midostaurin + Linsitinib; first compound 0.3162 µM): 0.822

LC-2-ad
relative viability (Midostaurin + Tozasertib; first compound 0.01 µM): 0.509 | relative viability (Midostaurin + Tozasertib; first compound 0.03162 µM): 0.545 | relative viability (Midostaurin + Tozasertib; first compound 0.1 µM): 0.52 | relative viability (Midostaurin + Tozasertib; first compound 0.3162 µM): 0.422 | relative viability ([1]; first compound 0.0128 µM): 1.1 | relative viability ([1]; first compound 0.04048 µM): 1.29 | relative viability ([1]; first compound 0.128 µM): 0.944 | relative viability ([1]; first compound 1.28 µM): 0.932 | relative viability (Midostaurin + OSI-027; first compound 0.01 µM): 0.792 | relative viability (Midostaurin + OSI-027; first compound 0.03162 µM): 0.791 | relative viability (Midostaurin + OSI-027; first compound 0.1 µM): 0.898 | relative viability (Midostaurin + OSI-027; first compound 0.3162 µM): 0.847 | relative viability (Midostaurin + Phenformin; first compound 0.01 µM): 0.542 | relative viability (Midostaurin + Phenformin; first compound 0.03162 µM): 0.562 | relative viability (Midostaurin + Phenformin; first compound 0.1 µM): 0.632 | relative viability (Midostaurin + Phenformin; first compound 0.3162 µM): 0.586 | relative viability (Midostaurin + Linsitinib; first compound 0.01 µM): 0.851 | relative viability (Midostaurin + Linsitinib; first compound 0.03162 µM): 0.768 | relative viability (Midostaurin + Linsitinib; first compound 0.1 µM): 0.849 | relative viability (Midostaurin + Linsitinib; first compound 0.3162 µM): 0.631

SK-LU-1
relative viability (Midostaurin + Tozasertib; first compound 0.01 µM): 0.337 | relative viability (Midostaurin + Tozasertib; first compound 0.03162 µM): 0.449 | relative viability (Midostaurin + Tozasertib; first compound 0.1 µM): 0.278 | relative viability (Midostaurin + Tozasertib; first compound 0.3162 µM): 0.202 | relative viability ([1]; first compound 0.0128 µM): 0.213 | relative viability ([1]; first compound 0.04048 µM): 0.187 | relative viability ([1]; first compound 0.128 µM): 0.203 | relative viability ([1]; first compound 1.28 µM): 0.141 | relative viability (Midostaurin + OSI-027; first compound 0.01 µM): 0.347 | relative viability (Midostaurin + OSI-027; first compound 0.03162 µM): 0.333 | relative viability (Midostaurin + OSI-027; first compound 0.1 µM): 0.321 | relative viability (Midostaurin + OSI-027; first compound 0.3162 µM): 0.271 | relative viability (Midostaurin + Phenformin; first compound 0.01 µM): 0.521 | relative viability (Midostaurin + Phenformin; first compound 0.03162 µM): 0.54 | relative viability (Midostaurin + Phenformin; first compound 0.1 µM): 0.49 | relative viability (Midostaurin + Phenformin; first compound 0.3162 µM): 0.421 | relative viability (Midostaurin + Linsitinib; first compound 0.01 µM): 1.11 | relative viability (Midostaurin + Linsitinib; first compound 0.03162 µM): 0.961 | relative viability (Midostaurin + Linsitinib; first compound 0.1 µM): 1.06 | relative viability (Midostaurin + Linsitinib; first compound 0.3162 µM): 0.664

COR-L 105
relative viability (Midostaurin + Tozasertib; first compound 0.01 µM): 0.404 | relative viability (Midostaurin + Tozasertib; first compound 0.03162 µM): 0.356 | relative viability (Midostaurin + Tozasertib; first compound 0.1 µM): 0.341 | relative viability (Midostaurin + Tozasertib; first compound 0.3162 µM): 0.313 | relative viability ([1]; first compound 0.0128 µM): 0.641 | relative viability ([1]; first compound 0.04048 µM): 0.707 | relative viability ([1]; first compound 0.128 µM): 0.737 | relative viability ([1]; first compound 1.28 µM): 0.479 | relative viability (Midostaurin + OSI-027; first compound 0.01 µM): 0.793 | relative viability (Midostaurin + OSI-027; first compound 0.03162 µM): 0.548 | relative viability (Midostaurin + OSI-027; first compound 0.1 µM): 0.607 | relative viability (Midostaurin + OSI-027; first compound 0.3162 µM): 0.551 | relative viability (Midostaurin + Phenformin; first compound 0.01 µM): 0.535 | relative viability (Midostaurin + Phenformin; first compound 0.03162 µM): 0.44 | relative viability (Midostaurin + Phenformin; first compound 0.1 µM): 0.473 | relative viability (Midostaurin + Phenformin; first compound 0.3162 µM): 0.389 | relative viability (Midostaurin + Linsitinib; first compound 0.01 µM): 0.818 | relative viability (Midostaurin + Linsitinib; first compound 0.03162 µM): 0.922 | relative viability (Midostaurin + Linsitinib; first compound 0.1 µM): 0.766 | relative viability (Midostaurin + Linsitinib; first compound 0.3162 µM): 0.727

NCI-H1975
relative viability (Midostaurin + Tozasertib; first compound 0.01 µM): 0.732 | relative viability (Midostaurin + Tozasertib; first compound 0.03162 µM): 0.763 | relative viability (Midostaurin + Tozasertib; first compound 0.1 µM): 0.716 | relative viability (Midostaurin + Tozasertib; first compound 0.3162 µM): 0.37 | relative viability ([1]; first compound 0.0128 µM): 0.249 | relative viability ([1]; first compound 0.04048 µM): 0.186 | relative viability ([1]; first compound 0.128 µM): 0.159 | relative viability ([1]; first compound 1.28 µM): 0.123 | relative viability (Midostaurin + OSI-027; first compound 0.01 µM): 0.784 | relative viability (Midostaurin + OSI-027; first compound 0.03162 µM): 0.838 | relative viability (Midostaurin + OSI-027; first compound 0.1 µM): 0.752 | relative viability (Midostaurin + OSI-027; first compound 0.3162 µM): 0.607 | relative viability (Midostaurin + Phenformin; first compound 0.01 µM): 0.425 | relative viability (Midostaurin + Phenformin; first compound 0.03162 µM): 0.418 | relative viability (Midostaurin + Phenformin; first compound 0.1 µM): 0.39 | relative viability (Midostaurin + Phenformin; first compound 0.3162 µM): 0.397 | relative viability (Midostaurin + Linsitinib; first compound 0.01 µM): 0.92 | relative viability (Midostaurin + Linsitinib; first compound 0.03162 µM): 0.959 | relative viability (Midostaurin + Linsitinib; first compound 0.1 µM): 0.727 | relative viability (Midostaurin + Linsitinib; first compound 0.3162 µM): 0.575
